Laboratory results as given in patent publication US20250127782A1, “METHODS OF TREATING CANCER” (AMGEN INC., priority 2021, published 2025).

Legend:
CRC = assay: Study 20170543 Phase 2 CRC cohort, sotorasib monotherapy; type: in vivo, human
Text: A data snapshot was taken on Jun. 9, 2022.

KRAS G12C mutated CRC = assay: Study 20190135 Subprotocol H, sotorasib + panitumumab: safety and tolerability (DLTs, TRAEs)
Text: Accordingly, the primary endpoint will include an assessment of dose limiting toxicities, treatment-emergent and treatment-related adverse events.
The grading of AEs will be based on the guidelines provided in the CTCAE version 5.0. […] A Hy's Law case is defined as: AST or ALT values of ≥3×ULN AND with serum total bilirubin level (TBL) of >2×ULN without signs of cholestasis and with no other clear alternative reason to explain the observed liver related laboratory abnormalities.

[1] = Phase 1 study of sotorasib with omeprazole under fasted conditions; type: in vivo, human
[2] = Phase 1 study of sotorasib with famotidine or omeprazole under fed conditions; type: in vivo, human
Experimental: Safety and tolerability monitoring was performed throughout the study.

[3] = Phase 1 study of sotorasib with rifampin; type: in vivo, human
[4] = system: extracellular signal-regulated kinase (ERK); settings: preclinical studies; cited from earlier work
[5] = Study 20170543 (CodeBreaK 100): sotorasib monotherapy pharmacokinetics; settings: for AUC(0-t): AUC0-24h
[6] = Study 20190135 Subprotocol H: sotorasib pharmacokinetics in combination with panitumumab
[7] = Phase 1 study of digoxin with sotorasib; type: in vivo, human
Text: PK parameters were estimated using non-compartmental methods. Safety and tolerability were monitored throughout the study.

[8] = Phase 1 study of midazolam with sotorasib; settings: 2 mg midazolam with 960 mg sotorasib after 14 days of daily sotorasib vs midazolam alone; 5 subjects
[9] = Aug. 6, 2021 data cut, 31 patients on the combination
[10] = Jun. 24, 2022 data cut-off, 40 patients on the combination
[11] = with omeprazole vs sotorasib alone, fasted state
[12] = famotidine 10 hours prior to and 2 hours after a single dose of sotorasib
[13] = repeat doses of omeprazole with a single dose of sotorasib
[14] = 960 mg sotorasib with single dose of 600 mg rifampin
[15] = human, plasma, oral, day 1, monotherapy (CodeBreaK 100), comparison in Aug. 6, 2021 data cut
[16] = Jun. 24, 2022 data cut-off, combination therapy with panitumumab (n=35)
[17] = 0.5 mg digoxin coadministered with 960 mg sotorasib
[18] = with a single dose of sotorasib vs digoxin alone

## C=CC(=O)N1CCN(c2nc(=O)n(-c3c(C)ccnc3C(C)C)c3nc(-c4c(O)cccc4F)c(F)cc23)[C@@H](C)C1 (atropisomer, axis not shown; (M)) [sotorasib, 6-fluoro-7-(2-fluoro-6-hydroxyphenyl)-(1M)-1-[4-methyl-2-(propan-2-yl)pyridin-3-yl]-4-[(2S)-2-methyl-4-(prop-2-enoyl)piperazin-1-yl]pyrido[2,3-d]pyrimidin-2(1H)-one]
CRC
  response rate: 10%
KRAS G12C mutated CRC; Apr. 23, 2021 data cut, 8 patients on sotorasib 960 mg QD + panitumumab 6 mg/kg IV Q2W
  TRAEs of any grade related to the named drug: 4 patients
KRAS G12C mutated CRC; Apr. 23, 2021 data cut, 8 patients on the combination
  TRAEs leading to dose modification of the named drug: 1 patients
KRAS G12C mutated CRC; [9]
  TRAEs of any grade related to the named drug, % of patients: 45.2%
  TRAEs of any grade related to the named drug, number of patients: 14 patients
  TRAEs resulting in dose modification of the named drug, % of patients: 9.7%
  TRAEs resulting in dose modification of the named drug, number of patients: 3 patients
KRAS G12C mutated CRC; [10]
  TRAEs of any grade related to the named drug, % of patients: 65%
  TRAEs of any grade related to the named drug, number of patients: 26 patients
  TRAEs resulting in dose modification of the named drug, % of patients: 15%
  TRAEs resulting in dose modification of the named drug, number of patients: 6 patients
[1]; 960 mg sotorasib with 40 mg omeprazole vs alone, fasted
  mean terminal half-life (t1/2) with omeprazole compared to sotorasib alone: similar
[1]; coadministered with 40 mg omeprazole or alone, healthy subjects
  safety and tolerability: safe and well tolerated
[1]; [11]
  decrease of sotorasib AUCinf: 42%
  decrease of sotorasib Cmax: 57%
[2]; 960 mg sotorasib with 40 mg famotidine or multiple daily 40 mg omeprazole, healthy subjects
  safety and tolerability: safe and well tolerated
[2]; [12]
  decrease of sotorasib AUC: 38%
  decrease of sotorasib Cmax: 35%
[2]; [13]
  decrease of sotorasib AUC: 57%
  decrease of sotorasib Cmax: 65%
[3]; 960 mg sotorasib alone
  Geometric mean sotorasib AUCinf: 25600 ng·h/mL
  Geometric mean sotorasib Cmax: 6350 ng/mL
[3]; 960 mg sotorasib with multiple doses of 600 mg rifampin
  Geometric mean sotorasib Cmax: 4110 ng/mL
[3]; [14]
  Geometric mean sotorasib AUCinf: 19600 ng·h/mL
  Geometric mean sotorasib Cmax: 5340 ng/mL
[3]; coadministered with 600 mg rifampin or alone, healthy subjects
  safety and tolerability: safe and well tolerated
[3]; inferred from multiple doses of rifampin
  CYP3A4 substrate status: is a CYP3A4 substrate
[3]; inferred from single dose of rifampin
  OATP1B1 substrate status: not a substrate of OATP1B1
[3]; multiple doses of rifampin
  decrease of sotorasib AUCinf: 51%
  decrease of sotorasib Cmax: 35%
[3]; single dose of rifampin
  effect of single dose of rifampin on sotorasib PK: did not have a clinically meaningful effect
[4]
  phosphorylation of extracellular signal-regulated kinase (ERK): inhibited nearly all detectable phosphorylation
[5]; 180 mg, Day 8
  tmax, median (range): 0.75 (0.50-1.0) hr
[5]; 960 mg, Day 1
  tmax, median (range): 2.0 (0.25-6.0) hr
[5]; 180 to 960 mg PO QD, day 1 and day 8
  dose proportionality of exposure: less than dose-proportional
[5]; after PO administration, 180 to 960 mg PO QD
  Tmax: 1 to 2 h
[5]; human, plasma, oral
  Tmax: 1.9 h
[5]; [15]
  AUC(0-t): 103000 ng·h/mL
  Cmax: 9710 ng/mL
[5]; human, plasma, oral, mean (CV %), monotherapy (n=32, CodeBreaK 100), comparison in Jun. 24, 2022 data cut-off
  AUC(0-t): 65300 ng·h/mL
[5]; human, plasma, oral, day 8, monotherapy (CodeBreaK 100), comparison in Aug. 6, 2021 data cut
  Cmax: 6500 ng/mL
[5]; human, plasma, oral, tmax, day 8, monotherapy (CodeBreaK 100), comparison in Aug. 6, 2021 data cut
  Tmax: 2 h
[5]; human, plasma, oral, tmax, median (range), monotherapy (n=32, CodeBreaK 100), comparison in Jun. 24, 2022 data cut-off
  Tmax: 2 h
[5]; multiple PO QD dosing for 8 days
  accumulation with multiple dosing: no accumulation
[6]; Aug. 6, 2021 data cut, day 1, combination therapy with panitumumab
  AUC0-24h: 77200 ng·h/mL
[6]; [16]
  AUC0-24h, mean (CV %): 65.8 (56%) h*μg/mL
  Cmax, mean (CV %): 9.64 (55%) μg/mL

## C[C@H]1O[C@@H](O[C@H]2[C@@H](O)C[C@H](O[C@H]3[C@@H](O)C[C@H](O[C@H]4CC[C@@]5(C)[C@H](CC[C@@H]6[C@@H]5C[C@@H](O)[C@]5(C)[C@@H](C7=CC(=O)OC7)CC[C@]65O)C4)O[C@@H]3C)O[C@@H]2C)C[C@H](O)[C@@H]1O [digoxin]
[7]; 0.5 mg digoxin alone
  Geometric mean digoxin AUCinf: 33.2 ng·h/mL
  Geometric mean digoxin Cmax: 1.90 ng/mL
[7]; [17]
  Geometric mean digoxin AUCinf: 40.3 ng·h/mL
  Geometric mean digoxin Cmax: 3.64 ng/mL
[7]; 0.5 mg digoxin with 960 mg sotorasib vs alone
  Digoxin median tmax and mean terminal half-life (t1/2) with sotorasib compared to digoxin alone: similar
[7]; single doses of 0.5 mg digoxin alone or with 960 mg sotorasib
  safety and tolerability: safe and well tolerated
[7]; [18]
  increase of digoxin AUCinf: approximately 21%
  increase of digoxin Cmax: ~91%

## Cc1ncc2n1-c1ccc(Cl)cc1C(c1ccccc1F)=NC2 [midazolam]
[8]
  decrease of midazolam AUV: 53%
  decrease of midazolam Cmax: 48%
